How the values were obtained:
J2 of M. incognita = test: Recovery assay using distilled water (nematicidal vs nematostatic effect); format: in vivo
Protocol: (§1) FIG. 9—(A) Bioassay showing the effect of the commercial compounds on second-stage juveniles of M. incognita after 48 hours' exposure. 1—Control dH20, 2—DECE, 3—Glycose 10%, 4—Glycose 20%, 5—D-Pinitol (80 ug), 6—D-Pinitol (150 ug), 7—L-canavanina (80 ug), 8—L-canavanina (150 ug), 9—palmitic acid (80 ug), 10—palmitic acid (150 ug), 11—citric acid (80 ug), 12—citric acid (150 ug), 13—malic acid (80 ug), 14—malic acid (150 ug), 15—cis-aconitic acid (80 ug), 16—cis-anonitic acid (150 ug), 17—trans-anonitic acid (80 ug), 18—trans-aconitic acid (150 ug), 19—50 mM Tris/HCl pH 8, 20—50 mM acetic acid pH 5, 21—L-phenylamine (80 ug), 22—L-phenylamine (150 ug), 23—L-methionine (80 ug), 24—L-methionine (150 ug), 25—L-tryptophan (80 ug), 26—L-tryptophan (150 ug), 27—S-carboxymethylcistein (80 ug), 28—S-carboxymethylcisteine (150 ug), 29—Zantotoxine (80 ug), 30—Zantotoxine (150 ug), and 31—Glucose 20%+L-canavanine (15) ug). B—Evaluation of the effect of the different commercial compounds after the recovery assay using distilled water.
(§2) FIG. 10—(A) Bioassay showing the effect of the commercial compounds and their compositions on second-stage juveniles of M. incognita (J1) after 48 hours' exposure. C+ positive control (extract); C−: negative control (water); 2: palmitic acid; 3: S-carboxymethylcisteine; 4: trans-aconitic acid; 5: glucose. […] (B)—Evaluation of the effect of the different commercial compounds and their compositions after the recovery assay using distilled water. C+ positive control (extract); 2: palmitic acid; 3: S-carboxymethylcisteine; 4: trans-aconitic acid; 5: glucose.
(§3) In this context, compounds produced commercially with biological functions identified after research in the literature and present in the nematotoxic fractions of C. ensiformis were tested in bioassay against M. incognita juveniles (FIG. 9A).

[1] = tested on: second-stage juveniles (J2) of M. incognita; test: Bioassay against second-stage juveniles (J2) of M. incognita, 48 hours' exposure (paralysis); format: in vivo; conditions: for % paralyzed nematodes / % of paralyzed nematodes / nematotoxic effect on J2 / J2 paralyzed: 48 hours' exposure; for % of paralyzed nematodes: 0.25 g/L (of each compound)
Protocol: as §1, §2, §3

| Compound | % paralyzed nematodes ([1]; 0.125 g/L (of each compound)) | % paralyzed nematodes ([1]; 0.17 g/L (of each compound)) | kind of effect confirmed by recovery assay (J2 of M. incognita; 80 μg/300 μL) | kind of effect confirmed by recovery assay (J2 of M. incognita; 150 μg/300 μL) | nematotoxic effect on J2 ([1]; 80 μg/300 μL) | nematotoxic effect on J2 ([1]; 150 μg/300 μL) | J2 paralyzed ([1]; 80 μg/300 μL) | also measured |
| --- | --- | --- | --- | --- | --- | --- | --- | --- |
| O=C(O)/C=C(/CC(=O)O)C(=O)O [cis-aconitic, cis-aconitic acid] |  |  |  |  |  |  |  | nematicidal activity after the recovery assay (J2 of M. incognita; 150 μg/300 μL): 40% |
| CCCCCCCCCCCCCCCC(=O)O [palmitic acid] | <7.66% | 7.66% | nematostatic effect | nematostatic effect |  |  |  | % of paralyzed nematodes [1]: 33.86% |
| CO[C@H]1[C@H](O)[C@@H](O)[C@@H](O)[C@H](O)[C@@H]1O [D-pinitol] |  |  |  |  | did not exhibit any toxic effect | did not exhibit any toxic effect |  |  |
| O=C(O)/C=C(\CC(=O)O)C(=O)O [trans-aconitic acid] | <11.12% | 11.12% |  |  |  |  | 90% | % of paralyzed nematodes [1]: 27.08%; nematicidal activity after the recovery assay (J2 of M. incognita; 150 μg/300 μL): 98% |
| N[C@@H](Cc1ccccc1)C(=O)O [L-phenylamnine] |  |  |  |  | not capable of affecting the J2 | not capable of affecting the J2 |  |  |
| N[C@@H](Cc1c[nH]c2ccccc12)C(=O)O [L-triptofane] |  |  |  |  | not capable of affecting the J2 | not capable of affecting the J2 |  |  |
| COc1c2occc2cc2ccc(=O)oc12 [Xantotoxin] |  |  | nematicidal effect | nematicidal effect |  |  | 87% | J2 paralyzed ([1]; 150 μg/300 μL): 87% |
| S-carboxymethylcisteine | <43.03% | 43.03% | nematostatic effect | nematostatic effect |  |  | about 90% | J2 paralyzed ([1]; 150 μg/300 μL): about 90% |
| N=C(N)NOCC[C@H](N)C(=O)O [L-canavanine] |  |  |  |  | did not exhibit any nematotoxic activity |  |  | juveniles remained paralyzed after the recovery assay (J2 of M. incognita; 105 μg/300 μL): 25% |
| O=C[C@H](O)[C@@H](O)[C@H](O)[C@H](O)CO [glucose] | 0% |  |  |  |  |  |  | paralyzing of nematodes ([1]; solution 10% (W/V), 48 hours): paralyzing most of the nematodes; kind of activity confirmed by recovery assay (J2 of M. incognita; solution 10% (W/V)): nematostatic activity |

— patent publication US9750247B2, “Nematotoxic composition of synergistic effect, use of a nematotoxic composition of synergistic effect” (EMPRESA BRASILEIRA DE PESQUISA AGROPECUARIA—EMBRAPA, priority 2012, dated 2017)
